Measurements from patent US9012439B2, “Use of electrophilic compounds for inducing platelet production or maintaining platelet function” (University of Rochester, priority 2007, dated 2015).
“Also recorded” adds a separate entry of the source.

Assays:
M07e cells = test: Platelet production from M07e cells (flow cytometry); type: cell-based; settings: 10 μM, 24 h
Protocol: (§1) Meg-01 and M07e cells were purchased from the American Type Culture Collection (Rockville, Md.) and Dami cells were a generous gift from Dr. Patricia J. Simpson-Haidaris (University of Rochester). All cells were cultured in RPMI-1640 tissue culture medium (Invitrogen) supplemented with 5% fetal bovine serum (FBS; Invitrogen), 10 mM HEPES (N-2-hydroxyethylpiperazine-N′-2-ethanesulfonic acid; Sigma), 2 mM L-glutamine (Invitrogen), 4.5 g/L glucose (Invitrogen), and 50 μg/mL gentamicin (Invitrogen). M07e cells were also supplemented with 100 ng/mL of granulocyte monocyte-colony stimulating factor (GM-CSF, R&D Systems). All treatments were performed in normal growth media. Dimethyl sulfoxide (DMSO) was used as a vehicle (control) in the experiments described below.
Platelets were isolated from megakaryocytes by centrifugation at 150 xg for 10 min. Supernatants underwent sequential centrifugation (500 xg for 10 min and 1000×g for 10 min). The remaining platelet pellet was fixed then permeabilized with a CD61 or CD41 antibody. 7-AAD (BD Pharmingen) was added for 10 min before analyzing the cells by flow cytometry. […]

PPARγ = target: T1, PPARγ (Homo sapiens, UniProt P37231); test: PPARγ gene reporter analysis (PPRE-luciferase) in Meg-01 cells; type: cell-based; settings: 10 μM, 24 h after ligand treatment
T1 construct: Meg-01 cells were plated at a density of […] cells per well in a E-well plate and transfected; endogenous in cells; host or cells: Meg-01 cells
T1 sequence (P37231 1-505): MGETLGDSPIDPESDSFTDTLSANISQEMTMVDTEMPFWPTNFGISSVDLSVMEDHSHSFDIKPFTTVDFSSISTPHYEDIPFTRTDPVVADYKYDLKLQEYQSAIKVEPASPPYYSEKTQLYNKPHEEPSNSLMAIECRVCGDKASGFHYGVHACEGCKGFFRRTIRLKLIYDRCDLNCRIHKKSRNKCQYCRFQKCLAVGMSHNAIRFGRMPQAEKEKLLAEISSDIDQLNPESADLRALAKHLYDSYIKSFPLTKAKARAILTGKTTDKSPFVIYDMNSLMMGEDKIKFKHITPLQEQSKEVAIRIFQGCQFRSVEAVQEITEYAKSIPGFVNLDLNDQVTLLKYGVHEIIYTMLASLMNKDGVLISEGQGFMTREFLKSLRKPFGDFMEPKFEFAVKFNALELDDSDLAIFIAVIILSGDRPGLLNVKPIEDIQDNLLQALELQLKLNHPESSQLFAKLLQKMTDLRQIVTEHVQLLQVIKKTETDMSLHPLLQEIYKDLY
Protocol: Meg-01 cells were plated at a density of […] cells per well in a […] and transfected, using lipofectamine LTX (Invitrogen), with a PPRE (Peroxisome Proliferator Response Element)-luciferase reporter plasmid containing three copies of the ACO-PPRE (a gift from Dr. B. Seed, Massachusetts General Hospital, Boston, Mass.). […] Transfection efficiency was determined by transfecting the cells with green fluorescent protein (GFP) plasmid and determining the percentage of cells that were GFP+ by flow cytometry. […] Luciferase activity was assessed 24 h after ligand treatment using the Promega Luciferase Assay System, and relative light units (RLU) were determined using a Lumicount Microplate Luminometer (Packard Instrument Co., Meriden, Conn.).

Meg-01 cells [1] = test: Reactive oxygen species production in Meg-01 cells (carboxy-H2DCFDA, MitoSOX Red); type: cell-based, human; settings: for percentage of Meg-01 cells that produce mitochondrial superoxide (MitoSOX Red): 10 μM
Protocol: Ten μM carboxy-H2DCFDA was added to cells for 20 min at RT. The cells were washed and immediately analyzed by flow cytometry. Five μM of MitoSOX Red dye in HBSS containing Mg^2+ and Ca^2+ was added to the cells for 15 min at 37° C. The cells were washed in HBSS and analyzed by flow cytometry.

Meg-01 cells [2] = test: Platelet production from Meg-01 cells (flow cytometry); type: cell-based, human
Protocol: as §1
Platelets were isolated from megakaryocytes by centrifugation at 150 xg for 10 min. Supernatants underwent sequential centrifugation (500 xg for 10 min and 1000×g for 10 min). The remaining platelet pellet was fixed then permeabilized with a CD61 or CD41 antibody. 7-AAD (BD Pharmingen) was added for 10 min before analyzing the cells by flow cytometry. Platelets were identified using three well-described parameters (Patel et al., “The Biogenesis of Platelets from Megakaryocyte Proplatelets,” J Clin Invest 115:3348-3354 (2005); Breton-Gorius et al., “Expression of Platelet Proteins During the In Vitro and In Vivo Differentiation of Megakaryocytes and Morphological Aspects of Their Maturation,” Semin Hematol 23:43-67 (1986); Ogura et al., “Establishment of a Novel Human Megakaryoblastic Leukemia Cell Line, MEG-01, With Positive Philadelphia Chromosome,” Blood 66:1384-1392 (1985) and Franks et al., “A Fluorescence Microscopy Method for Quantifying Levels of Prostaglandin Endoperoxide H Synthase-1 and CD-41 in MEG-01 Cells,” Biol Proced Online 3:54-63 (2001), each of which is hereby incorporated by reference in its entirety), size (using normal human platelets as a control), presence of CD61 or CD41 and lack of DNA as determined by the absence of 7-AAD staining Ten thousand platelet events were collected and platelets were quantified by rate (platelet events/second) (Chung et al., “Platelet Activation in Acute, Decompensated Congestive Heart Failure,” Thromb Res 120:709-713 (2007), which is hereby incorporated by reference in its entirety.
A 19 by target sequence was selected to knock down PPARγ. PPARγ was cloned downstream of the RNA polymerase III U6 promoter and subcloned into a FG12 lentiviral vector which expresses green fluorescent protein (GFP) under the Ubiquitin C promoter. HEK 293 cells expressing this siRNA PPARγ had reduced PPARγ protein levels. To make the lentivirus, HEK 293 cells were co-transfected with 3 plasmids: the envelope vector (CMV-VSVG), the transfer vector (FG12-shRNAPPAR), and the packaging construct (pCMVΔ89.2 (gag/pol proteins)). Viral supernatants were collected every 8 h for 2 days and concentrated by ultracentrifugation at 50,000×g for 2 h at 4° C. using a Beckman SW 28 rotor. Viral titers were determined by infection of HeLa cells with serial dilutions of the viral stocks. Meg-01 cells were infected at a multiplicity of infection (MOI) of 20. After 48 h, approximately 56% of the PPARγ siRNA cells were transduced as determined by flow cytometry. The GFP positive (+) cells were then sorted by FACS and grown in RPMI with 5% FBS.

Meg-01-derived platelets = test: Collagen-induced shape change of Meg-01-derived platelets; type: cell-based, human; settings: platelets from Meg-01 cells treated 10 μM for 24 h; collagen 10 μg/mL, 15 min
Protocol: Platelets were isolated from the Meg-01 cells and human blood as described above. Both normal human platelets and Meg-01-derived platelets were stained with annexin V-FITC then treated with 10 μg/ml of collagen for 15 min. Cells were analyzed for collagen-induced annexin V binding and change in size and shape by flow cytometry. Platelets were isolated from primary human megakaryocytes and primary mouse megakaryocytes as described above. Primary human platelets were stained with CD41-FITC and primary mouse platelets were stained with CD61-PE then treated with 10 μg/mL of collagen. Cells were analyzed for collagen-induced CD61/CD41 upregulation and change in size and shape using flow cytometry.

CCCCCC=CC=C1C(=O)C=C[C@@H]1CC=CCCCC(=O)O [15d-PGJ2, 15-deoxy-Δ^12,14 prostaglandin J2]
platelet production (M07e cells): increased platelet production | PPARγ activation (PPRE-luciferase activity) (PPARγ): activated PPARγ | percentage of Meg-01 cells that produce mitochondrial superoxide (MitoSOX Red) (Meg-01 cells [1]; 1 h): 43% | percentage of Meg-01 cells that produce mitochondrial superoxide (MitoSOX Red) (Meg-01 cells [1]; 6 h): 31% | percentage of Meg-01 cells that express ROS (carboxy-H2DCFDA) (Meg-01 cells [1]; 1 h): 91% | percentage of Meg-01 cells that express ROS (carboxy-H2DCFDA) (Meg-01 cells [1]; 6 h): 97% | platelet-enhancing effect after PPARγ protein knock-down (Meg-01 cells [2]; Meg-01 cells infected with PPARγ siRNA lentivirus, 15d-PGJ2 24 h): failed to attenuate the platelet-enhancing effects of 15d-PGJ2 | platelet production (Meg-01 cells [2]; Meg-01 cells, 10 μM, 24 h): increased platelet production; also recorded: enhanced Meg-01 platelet production | platelet production with increasing concentrations (Meg-01 cells [2]; Meg-01 cells, increasing concentrations, 24 h): dose-dependent increase in platelet production | platelets that decreased their size and increased their granularity in response to collagen (Meg-01-derived platelets): 68%
